Reference: ChEMBL document CHEMBL2321809 (J Med Chem, 2013)
≈ marks a conversion by molar mass, not a printed value. Calls of active or inactive are those of the source. The calls are words filed in the database; no cut-off is given here.

Tests used:
[1] = Inhibition of wild type Beta-lactamase SHV-1 in Escherichia coli DH10B by Henri-Michaelis-Menten steady state equation analysis
[2] = Inhibition of Beta-lactamase SHV-1 K234R protein mutant in Escherichia coli DH10B by Henri-Michaelis-Menten steady state equation analysis
Escherichia coli [3] = test: Binding affinity to Beta-lactamase SHV-1 K234R protein mutant in Escherichia coli DH10B assessed as melting temperature at 50 uM by circular dichroism analysis
Escherichia coli [4] = test: Selectivity ratio of Ki for Beta-lactamase SHV-1 in Escherichia coli DH10B to Ki for Beta-lactamase SHV-1 K234R protein mutant in Escherichia coli DH10B
Escherichia coli [5] = test: Binding affinity to wild type Beta-lactamase SHV-1 in Escherichia coli DH10B assessed as melting temperature at 50 uM by circular dichroism analysis
Escherichia coli [6] = test: Binding affinity to Beta-lactamase SHV-1 K234R protein mutant in Escherichia coli DH10B assessed as change in secondary structure at 50 uM by circular dichroism analysis
Escherichia coli [7] = test: Binding affinity to wild type Beta-lactamase SHV-1 in Escherichia coli DH10B assessed as change in secondary structure at 50 uM by circular dichroism analysis
Escherichia coli [8] = test: Ratio of Kcat to Km for wild type Beta-lactamase SHV-1 in Escherichia coli DH10B
Escherichia coli [9] = test: Activity of Beta-lactamase SHV-1 K234R protein mutant in Escherichia coli DH10B by Henri-Michaelis-Menten steady state equation analysis
Escherichia coli [10] = test: Activity of wild type Beta-lactamase SHV-1 in Escherichia coli DH10B by Henri-Michaelis-Menten steady state equation analysis
Escherichia coli [11] = test: Ratio of Kcat to Km for Beta-lactamase SHV-1 K234R protein mutant in Escherichia coli DH10B
Escherichia coli [12] = test: Antimicrobial activity against Escherichia coli DH10B expressing wild type Beta-lactamase SHV-1 by CLSI agar dilution method; format: functional
Escherichia coli [13] = test: Antimicrobial activity against Escherichia coli DH10B expressing Beta-lactamase SHV-1 K234A protein mutant by CLSI agar dilution method; format: functional
Escherichia coli [14] = test: Antimicrobial activity against Escherichia coli DH10B by CLSI agar dilution method; format: functional
Escherichia coli [15] = test: Antimicrobial activity against Escherichia coli DH10B expressing Beta-lactamase SHV-1 K234R protein mutant by CLSI agar dilution method; format: functional
Escherichia coli [16] = test: Antimicrobial activity against Escherichia coli DH10B expressing Beta-lactamase SHV-1 K234X protein mutant by CLSI agar dilution method; format: functional
Escherichia coli [17] = test: Antimicrobial activity against Escherichia coli DH10B expressing wild type Beta-lactamase SHV1 gene by CLSI agar dilution method in presence of ampicillin; format: functional
Escherichia coli [18] = test: Antimicrobial activity against Escherichia coli DH10B by CLSI agar dilution method in presence of ampicillin; format: functional
Escherichia coli [19] = test: Antimicrobial activity against Escherichia coli DH10B expressing Beta-lactamase SHV K234R mutant by CLSI agar dilution method in presence of ampicillin; format: functional
Escherichia coli [20] = test: Antimicrobial activity against Escherichia coli DH10B expressing Beta-lactamase SHV K234X mutant by CLSI agar dilution method in presence of ampicillin; format: functional
Escherichia coli [21] = test: Antimicrobial activity against Escherichia coli DH10B expressing Beta-lactamase SHV K234A mutant by CLSI agar dilution method in presence of ampicillin; format: functional

`O=C(Cc1cccs1)N[C@@H](Cc1cccc(C(=O)O)c1)B(O)O` gave a Ki [1] of 0.46 µM and a Ki [2] of 0.012 µM.
Molecule `CCOc1ccc2ccccc2c1C(=O)N[C@@H](Cc1cccc(C(=O)O)c1)B(O)O` has a Ki [1] of 0.037 µM and a Ki [2] of 0.048 µM.
Molecule `N[C@@H](C(=O)N[C@@H](Cc1cccc(C(=O)O)c1)B(O)O)c1ccccc1` has a Tm (Escherichia coli [3]) of 54.8 °C, a Ratio Ki (Escherichia coli [4]) of 20 and a Ki [1] of 0.056 µM. The Ki [2] was 0.0024 µM and the Tm (Escherichia coli [5]) was 61.4 °C.
For `CCN1CCN(C(=O)N[C@@H](C(=O)N[C@@H](Cc2cccc(C(=O)O)c2)B(O)O)c2ccc(O)cc2)C(=O)C1=O`, the Ki [1] was 0.0093 µM and the Ki [2] was 0.0135 µM.
In the case of `O=C(Cc1cccs1)NCB(O)O`, the Tm (Escherichia coli [3]) is reported as 48.9 °C, the Ki [1] is reported as 20 µM and the inhibition (Escherichia coli [6]) is reported as “inactive”. For the same molecule, the Ki [2] was 61 µM, the inhibition (Escherichia coli [7]) was “Active” and the Tm (Escherichia coli [5]) was 55.1 °C.
In the case of `O=C(Cc1cccs1)N[C@@H]1C(=O)N2C(C(=O)O)=C(/C=C/c3ccc([N+](=O)[O-])cc3[N+](=O)[O-])CS[C@H]12`, the kcat/Km (Escherichia coli [8]) is reported as 1.41e+07 M⁻¹ s⁻¹, the Km (Escherichia coli [9]) is reported as 10.4 µM and the kcat (Escherichia coli [9]) is reported as 45.2 s⁻¹. The Km (Escherichia coli [10]) was 24.7 µM, the kcat (Escherichia coli [10]) was 348 s⁻¹ and the kcat/Km (Escherichia coli [11]) was 4.3e+06 M⁻¹ s⁻¹.
`CC1(C)S[C@@H]2[C@H](NC(=O)[C@H](N)c3ccccc3)C(=O)N2[C@H]1C(=O)O` [AMPICILLIN] showed an MIC (Escherichia coli [12]) greater than 16400 µg/mL, an MIC (Escherichia coli [13]) of 32 µg/mL (≈ 91.6 µM) and an MIC (Escherichia coli [14]) of 1 µg/mL (≈ 2.86 µM). It also gave an MIC (Escherichia coli [15]) of 16400 µg/mL (≈ 46900 µM) and an MIC (Escherichia coli [16]) of 4 µg/mL (≈ 11.4 µM).
Work on `CC(=O)OCC1=C(C(=O)O)N2C(=O)[C@@H](NC(=O)Cc3cccs3)[C@H]2SC1` [CEPHALOTHIN] yielded a kcat/Km (Escherichia coli [8]) of 870000 M⁻¹ s⁻¹, a Km (Escherichia coli [9]) of 29 µM and an MIC (Escherichia coli [12]) of 256 µg/mL (≈ 646 µM). For the same molecule, the MIC (Escherichia coli [13]) was 8 µg/mL (≈ 20.2 µM), the MIC (Escherichia coli [14]) was 2 µg/mL (≈ 5.04 µM) and the Km (Escherichia coli [10]) was 48.9 µM. It also gave a kcat (Escherichia coli [10]) of 42.6 s⁻¹, an MIC (Escherichia coli [15]) of 16 µg/mL (≈ 40.4 µM) and an MIC (Escherichia coli [16]) of 8 µg/mL (≈ 20.2 µM).
For `O=C(O)[C@H]1/C(=C/CO)O[C@@H]2CC(=O)N21` [CLAVULANIC ACID], the Tm (Escherichia coli [3]) was 46.1 °C, the MIC (Escherichia coli [17]) was 4 µg/mL and the inhibition (Escherichia coli [6]) was “Active”. The MIC (Escherichia coli [18]) was less than 0.06 µg/mL, the MIC (Escherichia coli [19]) was 16 µg/mL and the inhibition (Escherichia coli [7]) was “Active”. The Tm (Escherichia coli [5]) was 55 °C.
`CCN1CCN(C(=O)N[C@@H](C(=O)N[C@@H]2C(=O)N3[C@@H]2SC(C)(C)[C@@H]3C(=O)O)c2ccccc2)C(=O)C1=O` [PIPERACILLIN] gave a kcat/Km (Escherichia coli [8]) of 1.58e+07 M⁻¹ s⁻¹, a Km (Escherichia coli [9]) of 305 µM and an MIC (Escherichia coli [12]) greater than 4100 µg/mL. For the same molecule, the MIC (Escherichia coli [13]) was 8 µg/mL (≈ 15.5 µM), the MIC (Escherichia coli [14]) was 1 µg/mL (≈ 1.93 µM) and the Km (Escherichia coli [10]) was 74.6 µM. The kcat (Escherichia coli [10]) was 1180 s⁻¹, the MIC (Escherichia coli [15]) was 2050 µg/mL (≈ 3960 µM) and the MIC (Escherichia coli [16]) was 4 µg/mL (≈ 7.73 µM).
In the case of `CC1(C)[C@H](C(=O)O)N2C(=O)C[C@H]2S1(=O)=O` [SULBACTAM], the MIC (Escherichia coli [17]) is reported as 512 µg/mL, the inhibition (Escherichia coli [6]) is reported as “inactive” and the MIC (Escherichia coli [20]) is reported as less than 0.06 µg/mL. The MIC (Escherichia coli [18]) was less than 0.06 µg/mL, the MIC (Escherichia coli [19]) was 64 µg/mL and the inhibition (Escherichia coli [7]) was “Active”. For the same molecule, the Tm (Escherichia coli [5]) was 54.4 °C and the MIC (Escherichia coli [21]) was less than 0.06 µg/mL.
In the case of `C[C@]1(Cn2ccnn2)[C@H](C(=O)O)N2C(=O)C[C@H]2S1(=O)=O` [TAZOBACTAM], the Tm (Escherichia coli [3]) is reported as 49 °C, the MIC (Escherichia coli [17]) is reported as 128 µg/mL and the inhibition (Escherichia coli [6]) is reported as “inactive”. The MIC (Escherichia coli [20]) was less than 0.06 µg/mL, the MIC (Escherichia coli [18]) was less than 0.06 µg/mL and the MIC (Escherichia coli [19]) was 16 µg/mL. For the same molecule, the inhibition (Escherichia coli [7]) was “Active”, the Tm (Escherichia coli [5]) was 54.4 °C and the MIC (Escherichia coli [21]) was less than 0.06 µg/mL.
